≈ marks a conversion by molar mass, not a printed value. Where “and” joins values, the source holds several entries; their conditions need not be identical. Equal values may be shown once.
Key:
S. aureus (MDR00231) [1] = assay: Agar well-diffusion antimicrobial sensitivity assay; type: cell-based, Staphylococcus aureus; details: Staphylococcus aureus, read-out: Inhibition Zone (IZ)
[2] = system: S. epidermidis (MDR00223); assay: as above; type: cell-based, Staphylococcus epidermidis; details: Staphylococcus epidermidis, read-out: Inhibition Zone (IZ)
E. coli (MDR00501) [3] = assay: as above; type: cell-based; details: Escherichia coli, read-out: Inhibition Zone (IZ)
[4] = system: C. albicans100 (MDR00100); assay: as above; type: cell-based, Candida albicans; details: Candida albicans, read-out: Inhibition Zone (IZ)
[5] = system: C. albicans200 (MDR00200); assay: as above; type: cell-based, Candida albicans; details: Candida albicans, read-out: Inhibition Zone (IZ)
S. aureus (MDR00231) [6] = assay: MIC and MBC by broth microdilution; type: cell-based, Staphylococcus aureus
[7] = system: S. epidermidis (MDR00223); assay: MIC and MBC by broth microdilution; type: cell-based, Staphylococcus epidermidis
B. subtilis (MDR00423) = assay: MIC and MBC by broth microdilution; type: cell-based
E. coli (MDR00501) [8] = assay: MIC and MBC by broth microdilution; type: cell-based
A. baumannii (MDR00521) = assay: MIC and MBC by broth microdilution; type: cell-based; details: ratio in parentheses
K. pneumoniae (MDR00244) = assay: MIC and MBC by broth microdilution; type: cell-based; details: ratio in parentheses
[9] = system: C. albicans100 (MDR00100); assay: MIC and MFC by broth microdilution; type: cell-based, Candida albicans
[10] = system: C. albicans200 (MDR00200); assay: MIC and MFC by broth microdilution; type: cell-based, Candida albicans
S. aureus biofilm = assay: Staphylococcus biofilm mass reduction; type: cell-based; details: at their MIC
S. epidermidis biofilm = assay: Staphylococcus biofilm mass reduction; type: cell-based; details: at their MIC
S. aureus [11] = assay: Single-step resistance selection; type: cell-based, Staphylococcus aureus; details: 4 × MIC, 48 h
S. epidermidis = assay: Single-step resistance selection; type: cell-based, Staphylococcus epidermidis; details: 4 × MIC, 48 h
B. subtilis = assay: Single-step resistance selection; type: cell-based; details: 4 × MIC, 48 h
E. coli [12] = assay: Single-step resistance selection; type: cell-based; details: 4 × MIC, 48 h
A. baumannii [13] = assay: Single-step resistance selection; type: cell-based; details: 4 × MIC, 48 h
K. pneumoniae = assay: Single-step resistance selection; type: cell-based; details: 4 × MIC, 48 h
C. albicans100 = assay: Single-step resistance selection; type: cell-based, Candida albicans; details: 4 × MIC, 48 h
C. albicans200 [14] = assay: Single-step resistance selection; type: cell-based, Candida albicans; details: 4 × MIC, 48 h
S. aureus [15] = assay: Checkerboard combination assay with Ciprofloxacin; type: cell-based, Staphylococcus aureus
E. coli [16] = assay: Checkerboard combination assay with Ciprofloxacin; type: cell-based
A. baumannii [17] = assay: Checkerboard combination assay with Ciprofloxacin; type: cell-based
C. albicans200 [18] = assay: Checkerboard combination assay with Ketoconazole; type: cell-based, Candida albicans
RBCs = assay: Hemolytic assay; type: cell-based; details: human RBCs; compounds 1.0 mg/mL; Triton X-100 0.1% v/v; 37 °C, 35 min
E. coli DNA gyrase = E. coli DNA gyrase (Escherichia coli, UniProt P0AES4+P0AES6); assay: DNA gyrase inhibition; type: biochemical
E. coli DNA gyrase, sequence (P0AES4 whole entry, one chain of several): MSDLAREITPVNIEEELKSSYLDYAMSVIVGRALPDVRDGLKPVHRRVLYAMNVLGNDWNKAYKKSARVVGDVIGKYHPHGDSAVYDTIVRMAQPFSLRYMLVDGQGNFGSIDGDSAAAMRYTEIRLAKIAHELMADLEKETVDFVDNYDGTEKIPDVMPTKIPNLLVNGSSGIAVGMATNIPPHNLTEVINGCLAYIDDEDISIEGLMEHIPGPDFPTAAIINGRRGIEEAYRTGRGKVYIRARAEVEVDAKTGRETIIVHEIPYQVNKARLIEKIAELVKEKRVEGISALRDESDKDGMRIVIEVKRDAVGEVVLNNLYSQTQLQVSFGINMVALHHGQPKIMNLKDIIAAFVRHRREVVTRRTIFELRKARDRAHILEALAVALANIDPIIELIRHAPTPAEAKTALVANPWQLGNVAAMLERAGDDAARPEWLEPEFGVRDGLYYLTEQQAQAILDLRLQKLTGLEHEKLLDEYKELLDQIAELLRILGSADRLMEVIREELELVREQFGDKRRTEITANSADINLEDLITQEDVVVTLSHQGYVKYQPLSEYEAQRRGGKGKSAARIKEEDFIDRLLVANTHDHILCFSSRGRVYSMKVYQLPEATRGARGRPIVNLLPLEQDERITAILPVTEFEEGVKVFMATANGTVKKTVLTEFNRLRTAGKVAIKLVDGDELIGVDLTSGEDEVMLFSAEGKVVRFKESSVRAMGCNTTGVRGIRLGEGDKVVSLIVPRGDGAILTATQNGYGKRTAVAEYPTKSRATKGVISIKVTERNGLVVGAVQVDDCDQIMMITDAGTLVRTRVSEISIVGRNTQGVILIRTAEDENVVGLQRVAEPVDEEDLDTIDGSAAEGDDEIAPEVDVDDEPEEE

[19] = target: T1, dihydrofolate reductase (DHFR) (Homo sapiens, UniProt P00374); assay: DHFR inhibition; type: biochemical
T1 sequence (P00374 1-187): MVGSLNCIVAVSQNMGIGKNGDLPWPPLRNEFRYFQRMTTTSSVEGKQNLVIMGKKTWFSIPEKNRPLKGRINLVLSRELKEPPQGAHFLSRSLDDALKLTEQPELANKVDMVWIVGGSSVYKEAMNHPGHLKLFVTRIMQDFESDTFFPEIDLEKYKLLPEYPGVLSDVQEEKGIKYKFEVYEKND

[20] = In vitro cytotoxicity on normal cell line; type: cell-based, mouse; details: mouse, BNL normal liver cells
[21] = system: BNL: mouse normal liver cells; assay: In vitro cytotoxicity on normal cell line; type: cell-based
[22] = In vitro cytotoxicity on normal cell line; type: cell-based, green monkey; details: green monkey, Vero kidney cells
[23] = system: Vero: green monkey kidney; assay: In vitro cytotoxicity on normal cell line; type: cell-based
[24] = In vitro cytotoxicity on normal cell line; type: cell-based, rat; details: rat, H9C2 heart/myocardium cells
[25] = system: H9C2: rat heart/myocardium; assay: In vitro cytotoxicity on normal cell line; type: cell-based
Gram-negative bacteria = assay: MIC broth microdilution, Gram-negative panel; type: cell-based; details: Gram-negative bacteria used in this study
[26] = system: clinical pathogenic isolates; assay: Single-step resistance selection, whole panel; type: cell-based; details: 4 × MIC

Cc1c(NC(=O)CC2=NC(=O)CS2)c(=O)n(-c2ccccc2)n1C [Compound 10, N-(1,5-Dimethyl-3-oxo-2-phenyl-2,3-dihydro-1H-pyrazol-4-yl)-2-(4-oxo-4,5-dihydrothiazol-2-yl)acetamide]
zone of inhibition at 100000 µg/mL (S. aureus (MDR00231) [1]): 27 ± 0.21 mm | zone of inhibition at 100000 µg/mL [2]: 26 ± 0.4 mm | zone of inhibition at 100000 µg/mL (E. coli (MDR00501) [3]): 25 ± 0.22 mm | zone of inhibition at 100000 µg/mL [4]: 28 ± 0.88 mm | zone of inhibition at 100000 µg/mL [5]: 30 ± 0.55 mm | MBC/MIC (S. aureus (MDR00231) [6]; S. aureus, ratio in parentheses): 1 | MIC (S. aureus (MDR00231) [6]; Staphylococcus aureus, read-out: MIC (mean ± SEM), S. aureus, broth microdilution): 0.95 ± 0.2 µg/mL (≈ 2.76 µM) | MBC/MIC ([7]; S. epidermidis, ratio in parentheses): 1 | MIC ([7]; Staphylococcus epidermidis, read-out: MIC (mean ± SEM), S. epidermidis, broth microdilution): 0.97 ± 0.4 µg/mL (≈ 2.82 µM) | MBC/MIC (B. subtilis (MDR00423); B. subtilis, ratio in parentheses): 2 | MIC (B. subtilis (MDR00423); Bacillus subtilis, read-out: MIC (mean ± SEM), B. subtilis, broth microdilution): 0.98 ± 0.1 µg/mL (≈ 2.85 µM) | MBC/MIC (E. coli (MDR00501) [8]; E. coli, ratio in parentheses): 1 | MIC (E. coli (MDR00501) [8]; Escherichia coli, read-out: MIC (mean ± SEM), E. coli, broth microdilution): 0.46 ± 0.4 µg/mL (≈ 1.34 µM) | MBC/MIC (A. baumannii (MDR00521)): 0.5 | MBC/MIC (K. pneumoniae (MDR00244)): 1 | MFC/MIC ([9]; C. albicans100, ratio in parentheses): 2 | MIC ([9]; Candida albicans, read-out: MIC (mean ± SEM), C. albicans100, broth microdilution): 0.95 ± 0.3 µg/mL (≈ 2.76 µM) | MFC/MIC ([10]; C. albicans200, ratio in parentheses): 1 | MIC ([10]; Candida albicans, read-out: MIC (mean ± SEM), C. albicans200, broth microdilution): 0.47 ± 0.1 µg/mL (≈ 1.36 µM) | reduction of biofilm formation (S. aureus biofilm): 55.6% | reduction of biofilm formation (S. epidermidis biofilm): 53.3% | Single-step resistance frequency (mutation frequency) (S. aureus [11]): 2.41 × 10^–8 | Single-step resistance frequency (mutation frequency) (S. epidermidis): 3.00 × 10^–8 | Single-step resistance frequency (mutation frequency) (B. subtilis): 3.50 × 10^–8 | Single-step resistance frequency (mutation frequency) (E. coli [12]): 2.60 × 10^–8 | Single-step resistance frequency (mutation frequency) (A. baumannii [13]): 2.53 × 10^–8 | Single-step resistance frequency (mutation frequency) (K. pneumoniae): 2.61 × 10^–8 | Single-step resistance frequency (mutation frequency) (C. albicans100): 3.33 × 10^–8 | Single-step resistance frequency (mutation frequency) (C. albicans200 [14]): 3.50 × 10^–8 | combination effect (S. aureus [15]): S (S: synergism) | fractional inhibitory concentration index (FICI) (S. aureus [15]): 0.5 | combination effect (E. coli [16]): S (S: synergism) | fractional inhibitory concentration index (FICI) (E. coli [16]): 0.5 | combination effect (A. baumannii [17]): S (S: synergism) | fractional inhibitory concentration index (FICI) (A. baumannii [17]): 0.5 | combination effect (C. albicans200 [18]): S (S: synergism) | fractional inhibitory concentration index (FICI) (C. albicans200 [18]): 0.5 | %lysis of RBCs (RBCs): 11.66% and 11.66 ± 0.231% | IC50 (E. coli DNA gyrase): 28.88 ± 0.12 µM | IC50 [19]: 1.42 ± 0.23 µM | IC50 at 72 h [20]: 98.9 ± 1.54 µM | Selectivity index against DHFR ([21]; IC50 of BNL / IC50 of DHFR): 69.64 | Selectivity index against DNA gyrase ([21]; IC50 of BNL / IC50 of DNA gyrase): 3.42 | IC50 at 72 h [22]: 70.06 ± 0.34 µM | Selectivity index against DHFR ([23]; IC50 of Vero / IC50 of DHFR): 49.33 | Selectivity index against DNA gyrase ([23]; IC50 of Vero / IC50 of DNA gyrase): 2.42 | IC50 at 72 h [24]: 99.8 ± 1.84 µM | Selectivity index against DHFR ([25]; IC50 of H9C2 / IC50 of DHFR): 70.26 | Selectivity index against DNA gyrase ([25]; IC50 of H9C2 / IC50 of DNA gyrase): 3.45 | MIC, range over panel (Gram-negative bacteria): 0.43 to 0.98 µg/mL | mutation frequency, range over panel [26]: 2.41 × 10^–8 to 3.50 × 10^–8

From article PMC8851638 (ACS Omega, 2022)
